The source made the active and inactive calls.

The test system of this assay is Rattus norvegicus. In words: Antiallodynic activity in Sprague-Dawley rat model of neuropathic mechanical allodynia assessed as increase in paw withdrawal threshold at 100 mg/kg, po measured at 2 to 6 hrs post last dose by von Frey test. It counts as functional, organism-based. Particulars: time 2-6 hrs.

Take `NCC1(CC(=O)O)CCCCC1`: the result was Active.

Source of the values: ChEMBL document CHEMBL4819053, “Alkyne-Bridged α-Conotoxin Vc1.1 Potently Reverses Mechanical Allodynia in Neuropathic Pain Models” (J Med Chem, 2021).
